Source: patent publication US20210393549A1, “New use of R-enantiomer of adrenergic beta 2 receptor agonists for treatment of inflammatory bowel disease and its extra intestinal manifestations” (priority 2018, published 2021)
“Also recorded” adds a separate entry of the source.

Assays:
[1] = system: DSS induced sub-acute colitis; assay type: in vivo; design: DAI (disease active index) / FOB (fecal occult blood) / Hist score (histological score): scale not given here; Weight / Col Length (colon length): unit not given here
Text: This invention also disclosed the used of R-salbutamol for treatment of sub acute or chronic phases of IBD. In one embodiment, IBD was induced by DSS as mentioned above, along with the treatment of R-salbutamol, at day 7th, DSS was removed and replaced with drinking water for additional 2 weeks. The disease active index (DAI) of mice was examined and evaluated periodically. The mice were scarified for pathological and histological evaluations at day of 23rd. In DSS induce IBD mice, there were significant loss of weight and fecal occult blood at day 14th and 22nd. The overall condition of colitis was severe although there was slightly improvement comparing the day 7th. The colon-rector length was significant shortened, and histological score were significant higher from control. In mice with DSS induced colitis, there were significant mononuclear leucocytes infiltration, few newly grew crypts with architectural disarray, denegation of epithelia, mucosa aberrant. There was also deep mucosal lymphocytosis, destruction of lamina propria and sometimes, transmural inflammation.
Same as example 1, except • 1), Three weeks' study with one week treatment.
DSS and all the treatment was removed and replaced with drinking water at the end of 1st week. Mice were given drink water and food ad libitum for additional 2 weeks.

[2] = system: TNBS-induced colitis; experiment: TNBS-induced colitis (model for Crohn's disease); assay type: in vivo, Male mice
Text: Male mice colitis was induced by rectal co-administration of ethanol and TNBS (Trinitrobenzenesulfonic acid). Severe colitis in mice that was characterized by weight loss and diarrhea. Histologically there were loss of normal structures, visible discrete epithelioid granuloma, multiple erosive lesions, massive transmural inflammation infiltration of lymphocytes, and the loss of goblet cells. […] There was significant alleviation of lesions, few inflammatory infiltration with growing crypts and recovery mucosa epithelia along the column. […] In addition, in TNBS treated colitis mice, there were perianal symptoms: erythema, abscesses and ulcers found in some mice, which may lead to perianal fissures or fistulas. […] The therapeutically effects of R-salbuterol, R-clenbuterol and R-bambuterol on the symptoms in TNBS induced Crohn's disease has never been reported in prior art.

[3] = system: knee joints (articular cartilage, meniscus); experiment: Damage of knee joints in DSS induced IBD mice; assay type: in vivo; conditions: compared with untreated DSS mice
Text: In one embodiment, in DSS induced IBD mice, there was also a damage of knee joints. The articular cartilage structure became thinner and partially destroyed. The chondrocytes were degenerated, decreased and clustered. The meniscuses were damaged and lost its structural integrity. In X-ray, the layer of articular cartilage was thinner and bone structure was decreased. […] The articular cartilage and bone structure increased toward normal.

[4] = system: Janus kinase 2 (JAK2); experiment: JAK2 mRNA expression in psoriasis mice; assay type: in vivo; conditions: plasma of psoriasis mice, dose-response fashion
Text: (§1) There was enhanced expression of mRNA of Janus kinase 2 (JAK2), a non-receptor tyrosine kinase, and the signal transducer and activator of transcription protein (Stat 2) in the plasma of psoriasis mice in comparison of control, Indicating an increase of JAK2 and Stat 2 proteins. These over expression of mRNA was inhibited by R-salbutamol in a dose-response fashion. (FIG. 3 left & right)

[5] = system: signal transducer and activator of transcription protein (Stat 2); experiment: Stat 2 mRNA expression in psoriasis mice; assay type: in vivo; conditions: plasma of psoriasis mice, dose-response fashion
Text: as §1

[6] = system: DNCB induced allergic contact dermatitis; experiment: DNCB induced allergic contact dermatitis model (eczema); assay type: in vivo, mice
Description: Mice was shaved at abdominal area DNCB (100 μL 0.5%) is dissolved and applied to the shaved skin to induce Atopica dermatitis for 2 consecutive days. At day 8th, DNCB was applied to both inner and outer surfaces of ears to induce eczema. Treatment of R-salbutamol and indomethacin were given orally at day 1st for consecutive 8 days. The mice were scarified at day 9th for examination and evaluation. Mice were divided into four groups (n=8), namely A, Control; B. Eczema (DNCB); C. Eczema plus R-Salbutamol of 0.05, 0.1 or 0.2 mg/kg; D. Eczema plus indomethacin of 5 mg/kg. The inflammation scores were evaluated according to swelling, erythema, scratch and thickness of both ears. [table]

[7] = system: acne, maliaria, hives and eczema; experiment: Topical use on acne, maliaria, hives and eczema; assay type: in vivo
[8] = one week treatment, evaluation at 23rd day, R-S, S-S 1 mg/kg, R-B, S-B 10 mg/kg
[9] = sub-acute or chronic DSS colitis, compared with untreated DSS mice
[10] = oral 8 days, R-Salbutamol 0.05, 0.1 or 0.2 mg/kg, indomethacin 5 mg/kg

## CC(C)(C)NC[C@H](O)c1ccc(O)c(CO)c1 [R-S, R-salbutamol]
[1]; [8]
  Col Length (colon length): 8.2 ± 0.6
  DAI (disease active index): 4
  FOB (fecal occult blood): 0.5 ± 0.5
  Hist score (histological score): 3 ± 0.5
  Weight: 114 ± 0.2
[1]; [9]
  DAI, in words: significant improved
  histological index / histological score, in words: significantly ameliorated
[1]; sub-acute or chronic DSS colitis, day 14th and 22nd, compared with untreated DSS mice
  fecal occult blood, in words: significantly reduced
[2]; TNBS treated mice
  perianal manifestations (erythema, abscesses, ulcers): significantly alleviated
  submucosa fibrosis and narrowing of intestinal lumen: not seen; also recorded: significantly reduce the fibrosis and the narrowing of intestinal lumen
[2]; oral administration
  weight loss, diarrhea, colon length versus normal control mice: No significant different
[2]; oral administration (R-enantiomers)
  disease condition of TNBS colitis, in words: great ameliorated
[3]
  damage of articular cartilage, meniscus and bone structure of knee joints: significantly ameliorated
[4]
  over expression of mRNA of JAK2: inhibited
[5]
  over expression of mRNA of Stat 2: inhibited
[6]; R-Salbutamol 0.05 mg/kg
  ear skin histopathology: little effects on eczema
[6]; R-Salbutamol 0.1 mg/kg
  ear skin histopathology: significant reduced monocyte infiltration
[6]; R-salbutamol 0.2 mg/kg
  ear skin histopathology: further reductions in monocyte infiltration and epidermal keratinization
[6]; [10]
  erythema score of both ears: significantly alleviated or prevented
  thickness score of both ears: significantly alleviated or prevented
[6]; oral 8 days, dose-dependent response, indomethacin 5 mg/kg
  eczema histology and inflammatory infiltration: significantly improved
[7]
  symptoms of acne, maliaria, hives and eczema: significantly alleviated
